Data as given in patent publication US20240010658A1, “ABHD6 ANTAGONIST” (ONO PHARMACEUTICAL CO., LTD., priority 2021, published 2024).

Legend:
[1] = molecular target: recombinant human ABHD6 (33-337) (Homo sapiens (Human), UniProt Q9BV23); assay: Evaluation of ABHD6 enzyme inhibitory activity (arachidonic acid production from 1-arachidonoyl glycerol, RapidFire-MS); assay type: biochemical; conditions: inhibition of arachidonic acid production, 10 μmol/L 1-arachidonoyl glycerol, 1 hour, room temperature
Method: The recombinant human ABHD6 (33-337) was a GST-tagged ABHD6, and one which was expressed in E. coli, then purified with a Glutathione-Sepharose 4B resin, and then concentrated was used. The enzyme reaction was carried out at room temperature using a 384-well microplate made of polypropylene, and wells to which no enzyme was added were designated as a blank group.
One hour after the start of the enzyme reaction, methanol containing, as an internal standard substance, arachidonic acid-d8 (Cayman Chemical) and 1% formic acid was added to stop enzymatic reaction. The upper part of the enzyme reaction plate was sealed with aluminum, and centrifugation was performed at 560 g for 5 minutes at room temperature. Then, arachidonic acid as an enzyme reaction product and arachidonic acid-ds as the internal standard substance were quantified with RapidFire (registered trademark)-Mass Spectrometry system.

[2] = molecular target: human ABHD6 (Homo sapiens (Human), UniProt Q9BV23); assay: Measurement of binding affinity for human ABHD6 (BRET, HEK293 cells expressing NanoLuc-human ABHD6 fusion protein); conditions: BRET competition with fluorescent probe molecule 100 nmol/L in HEK293 cells expressing NanoLuc-human ABHD6
Method: The binding affinity of the test compound for human ABHD6 was measured using bioluminescence resonance energy transfer (hereinafter, abbreviated as BRET) as an index. The bioluminescence resonance energy transfer is induced by the proximity of a probe molecule and a NanoLuc-human ABHD6 fusion protein, which is caused by allowing a fluorescent probe molecule and a test compound to act in a competitive manner using HEK293 cells forcibly expressing the NanoLuc-human ABHD6 fusion protein.
The test compound and the compound described in Example 2 as a control substance were each dissolved in dimethyl sulfoxide (DMSO) to prepare a 10 mmol/L solution. The prepared 10 mmol/L solution was thawed at the time of use, serially diluted with DMSO, and subjected to an experiment.
HEK293 cells expressing a NanoLuc-human ABHD6 fusion protein were statically cultured at 37° C. in the presence of 5% CO2 using inactivated (56° C., 30 min) 9.8 vol % non-dialyzed-FBS (containing 0.5 vol % GENETICIN and 1% penicillin-streptomycin). The subculture was performed by the following method.
The culture medium was removed, and the cells were washed once with phosphate buffered saline without Ca^2+ and Mg^2+. An appropriate amount of trypsin-EDTA was added, and the cells were incubated at room temperature. After the cells were detached, a culture medium in a volume 10-fold the volume of trypsin-EDTA (0.05%) was added to stop an enzyme reaction. The cells were collected in a centrifuge tube, and centrifuged at room temperature for 3 minutes at 120 g, and the supernatant was removed. The cells were suspended in an appropriate amount of culture medium and seeded in a culture flask.
HEK293 cells expressing a NanoLuc-human ABHD6 fusion protein were prepared, and then cryopreserved so as to be 5.0×10^6 cells/mL/vial in CELLBANKER2, and the cells were subjected to an experiment. HBSS (+) containing 20 mmol/L HEPES (pH 7.3) and 0.1% BSA was prepared and used as an assay buffer. The cells were thawed and suspended in the assay buffer to prepare a cell suspension of 2×10^5 cells/mL. […] The plate was allowed to stand at 37° C. for 30 minutes in the presence of 5% CO2. Then, a probe molecule (10 mmol/L in DMSO) having a fluorophore was diluted with the assay buffer so as to have a final concentration of 100 nmol/L, and added to the assay plate in an amount of 15 μL each. Further, this was allowed to stand at 37° C. for 30 minutes in the presence of 5% CO2. Then, a Nano-Glo (registered trademark) Vivazine (trademark) substrate (Promega Corporation) was diluted with the assay buffer according to the method described in the protocol, and added to the assay plate in an amount of 10 μL each, and this was allowed to stand at room temperature for 1 hour. Thereafter, the luminescence and fluorescence intensity were measured using a GloMax (registered trademark) discover system. The ratio between the emission intensity through the 450 nm bandpass filter and the fluorescence intensity through the 600 nm longpass filter was defined as the measured value of each sample. The measured value of the group containing the control substance at a final concentration of 30 μmol/L was defined as 100% inhibition. The measured value of the group not containing the compound was defined as 0% inhibition. The IC50 value of the test compound was determined from the measured value at each test compound concentration.

Chain of recombinant human ABHD6 (33-337) (Q9BV23 33-337): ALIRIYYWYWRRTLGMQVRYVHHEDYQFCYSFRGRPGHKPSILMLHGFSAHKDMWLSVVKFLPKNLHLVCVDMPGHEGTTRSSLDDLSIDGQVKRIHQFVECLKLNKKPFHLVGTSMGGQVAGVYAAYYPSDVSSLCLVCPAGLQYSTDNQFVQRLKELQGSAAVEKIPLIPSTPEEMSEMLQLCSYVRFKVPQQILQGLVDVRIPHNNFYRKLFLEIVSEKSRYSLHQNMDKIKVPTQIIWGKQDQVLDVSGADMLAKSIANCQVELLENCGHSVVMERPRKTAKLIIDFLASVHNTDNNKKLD
Chain of human ABHD6 (Q9BV23 whole entry, the tested form may be a part): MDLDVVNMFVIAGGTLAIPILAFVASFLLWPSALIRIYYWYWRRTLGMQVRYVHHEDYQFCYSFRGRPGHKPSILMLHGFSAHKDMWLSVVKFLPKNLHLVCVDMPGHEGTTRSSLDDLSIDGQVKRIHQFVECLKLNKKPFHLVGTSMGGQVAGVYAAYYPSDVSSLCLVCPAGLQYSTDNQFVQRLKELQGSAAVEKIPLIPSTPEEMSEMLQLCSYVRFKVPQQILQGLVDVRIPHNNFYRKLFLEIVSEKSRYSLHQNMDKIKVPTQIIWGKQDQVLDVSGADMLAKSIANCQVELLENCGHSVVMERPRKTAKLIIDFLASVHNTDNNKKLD

With `Cn1cc2sc(C(=O)N3C[C@@H]4CC[C@@H](Nc5ccc(Br)nn5)[C@@H]4C3)cc2n1` [Example 3-9, [(3aS,4R,6aR)-4-[(6-Bromo-3-pyridazinyl)amino]hexahydrocyclopenta[c]pyrrol-2(1H)-yl](2-methyl-2H-thieno[3,2-c]pyrazol-5-yl)methanone] the IC50 [1] was 1 nM and the IC50 [2] was 5 nM.

`Cc1ccc(C(=O)N2C[C@@H]3CC[C@@H](Nc4nnc(Cl)cc4C#N)[C@@H]3C2)s1` (relative stereo) [Example 9, rel-6-Chloro-3-({(3aS,4R,6aR)-2-[(5-methyl-2-thienyl)carbonyl]octahydrocyclopenta[c]pyrrol-4-yl}amino)-4-pyridazinecarbonitrile] was tested, and the IC50 [1] was 2 nM and the IC50 [2] was 8 nM.

In the case of `Cc1ccc(C(=O)N2C[C@@H]3CC[C@@H](Nc4ccc(Cl)nn4)[C@@H]3C2)s1` [Example 1-2, {(3aS,4R,6aR)-4-[(6-Chloro-3-pyridazinyl)amino]hexahydrocyclopenta[c]pyrrol-2(1H)-yl}(5-methyl-2-thienyl)methanone], the IC50 [1] is reported as 1 nM and the IC50 [2] is reported as 5 nM.

In the case of `Cc1ccc(C(=O)N2C[C@@H]3CC[C@@H](Nc4ccc(Br)nn4)[C@]3(F)C2)s1` [Example 10, [(3aR,4R,6aS)-4-[(6-Bromopyridazin-3-yl)amino]-3a-fluoro-1.3.4.5.6.6a-hexahydrocyclopenta[c]pyrrol-2-yl]-(5-methyl-2-thienyl)methanone], the IC50 [1] is reported as under 1 nM and the IC50 [2] is reported as 2 nM.

With `O=C(c1cc2c(s1)CCOC2)N1C[C@H]2[C@H](Nc3ccc(Br)nn3)CC(F)(F)[C@H]2C1` [Example 16, [(3aR,6R,6aS)-6-[(6-Bromo-3-pyridazinyl)amino]-4,4-difluorohexahydrocyclopenta[c]pyrrol-2(1H)-yl](6,7-dihydro-4H-thieno[3,2-c]pyran-2-yl)methanone] the IC50 [1] was 1 nM and the IC50 [2] was 4 nM.

With `O=C(C1CC2CCC1CC2)N1C[C@@H]2CC[C@@H](Nc3ccc(Br)nn3)[C@@H]2C1` (stereo partly drawn) [Example 2-14, Bicyclo[2.2.2]oct-2-yl[(3aS,4R,6aR)-4-[(6-bromo-3-pyridazinyl)amino]hexahydrocyclopenta[c]pyrrol-2(1H)-yl]methanone] the IC50 [1] was 2 nM and the IC50 [2] was 16 nM.

`Cc1ccc(C(=O)N2C[C@@H]3CC[C@@H](N(Cc4ccccc4)c4ccc(Br)nn4)[C@@H]3C2)s1` [Example 6-2, [(3aS,4R,6aR)-4-[Benzyl(6-bromo-3-pyridazinyl)amino]hexahydrocyclopenta[c]pyrrol-2(1H)-yl](5-methyl-2-thienyl)methanone] gave an IC50 [1] of 1 nM and an IC50 [2] of 1 nM.

`O=C(c1cc2c(s1)CCOC2)N1C[C@@H]2CC[C@@H](Nc3ccc(Cl)nn3)[C@@H]2C1` [Example 1-4, [(3aS,4R,6aR)-4-[(6-Chloro-3-pyridazinyl)amino]hexahydrocyclopenta[c]pyrrol-2(1H)-yl](6,7-dihydro-4H-thieno[3,2-c]pyran-2-yl)methanone] showed an IC50 [1] of 1 nM and an IC50 [2] of 2 nM.

Work on `Cc1ccc(C(=O)N2C[C@@H]3CC[C@@H](n4ccc5cc(Cl)nnc54)[C@@H]3C2)s1` (racemic) [Example 8-1, rel-[(3aS,4R,6aR)-4-(3-Chloro-7H-pyrrolo[2,3-c]pyridazin-7-yl)hexahydrocyclopenta[c]pyrrol-2(1H)-yl](5-methyl-2-thienyl)methanone] yielded an IC50 [1] of 1 nM and an IC50 [2] of 5 nM.

`Cc1ccc(C(=O)N2C[C@@H]3CC[C@@H](Nc4ccc(Br)nn4)[C@@H]3C2)s1` [Example 2, [(3aS,4R,6aR)-4-[(6-Bromo-3-pyridazinyl)amino]hexahydrocyclopenta[c]pyrrol-2(1H)-yl](5-methyl-2-thienyl)methanone] gave an IC50 [1] of under 1 nM and an IC50 [2] of 1 nM.

`Cc1ccc(C(=O)N2C[C@@H]3CC[C@@H](Nc4ccc(I)nn4)[C@@H]3C2)s1` [Example 5, [(3aS,4R,6aR)-4-[(6-Iodo-3-pyridazinyl)amino]hexahydrocyclopenta[c]pyrrol-2(1H)-yl](5-methyl-2-thienyl)methanone] showed an IC50 [1] of 1 nM and an IC50 [2] of 3 nM.

Work on `O=C(c1cc2c(s1)CCOC2)N1C[C@@H]2CC[C@@H](Nc3ccc(Br)nn3)[C@@H]2C1` [Example 2-1, [(3aS,4R,6aR)-4-[(6-Bromo-3-pyridazinyl)amino]hexahydrocyclopenta[c]pyrrol-2(1H)-yl](6,7-dihydro-4H-thieno[3,2-c]pyran-2-yl)methanone] yielded an IC50 [1] of 1 nM and an IC50 [2] of 3 nM.

In the case of `O=C(c1cc2c(s1)CCOC2)N1C[C@@H]2CC3(CC3)[C@@H](Nc3ccc(Br)nn3)[C@@H]2C1` [Example 15, [(3aS, 4S, 6aR)-4-[(6-Bromopyridazin-3-yl)amino]spiro[1,3,3a,4,6,6a-hexahydrocyclopenta[c]pyrrole-5,1′-cyclopropan]-2-yl]-(6,7-dihydro-4H-thieno[3,2-c]pyran-2-yl)methanone], the IC50 [1] is reported as 1 nM and the IC50 [2] is reported as 1 nM.

`O=C(c1cc2nn(C3CC3)cc2s1)N1C[C@@H]2CC[C@@H](Nc3ccc(Br)nn3)[C@@H]2C1` [Example 3-10, [(3aS,4R,6aR)-4-[(6-Bromo-3-pyridazinyl)amino]hexahydrocyclopenta[c]pyrrol-2(1H)-yl](2-cyclopropyl-2H-thieno[3,2-c]pyrazol-5-yl)methanone] showed an IC50 [1] of 1 nM and an IC50 [2] of 2 nM.

Work on `O=C(c1cc2nn3c(c2s1)CCC3)N1C[C@@H]2CC[C@@H](Nc3ccc(Br)nn3)[C@@H]2C1` [Example 3-6, [(3aS,4R,6aR)-4-[(6-Bromo-3-pyridazinyl)amino]hexahydrocyclopenta[c]pyrrol-2(1H)-yl](7,8-dihydro-6H-pyrrolo[1,2-b]thieno[2,3-d]pyrazol-2-yl)methanone] yielded an IC50 [1] of 2 nM and an IC50 [2] of 6 nM.

`CN(C)c1ncc(C(=O)N2C[C@@H]3CC[C@@H](Nc4ccc(Br)nn4)[C@@H]3C2)s1` [Example 2-6, [(3aS,4R,6aR)-4-[(6-Bromo-3-pyridazinyl)amino]hexahydrocyclopenta[c]pyrrol-2(1H)-yl][2-(dimethylamino)-1,3-thiazol-5-yl]methanone] showed an IC50 [2] of 25 nM.

`CN1C(=O)CCc2sc(C(=O)N3C[C@@H]4CC[C@@H](Nc5ccc(Br)nn5)[C@@H]4C3)cc21` [Example 3, 2-{[(3aS,4R,6aR)-4-[(6-Bromo-3-pyridazinyl)amino]hexahydrocyclopenta[c]pyrrol-2(1H)-yl]carbonyl}-4-methyl-6,7-dihydrothieno[3,2-b]pyridin-5(4H)-one] gave an IC50 [1] of 5 nM and an IC50 [2] of 62 nM.

`O=C(c1cc2c(s1)CCOC2)N1C[C@@H]2CC[C@@H](Nc3ccc(Cl)nn3)[C@]2(F)C1` [Example 12, {(3aR,4R,6aS)-4-[(6-Chloro-3-pyridazinyl)amino]-3a-fluorohexahydrocyclopenta[c]pyrrol-2(1H)-yl}(6,7-dihydro-4H-thieno[3,2-c]pyran-2-yl)methanone] gave an IC50 [1] of 1 nM and an IC50 [2] of 1 nM.

For `O=C(c1ccc(C(F)F)s1)N1C[C@@H]2CC[C@@H](Nc3ccc(Cl)nn3)[C@@H]2C1` [Example 1, {(3aS,4R,6aR)-4-[(6-Chloro-3-pyridazinyl)amino]hexahydrocyclopenta[c]pyrrol-2(1H)-yl}[5-(difluoromethyl)-2-thienyl]methanone], the IC50 [1] was 1 nM and the IC50 [2] was 11 nM.
